Legend:
GST-Pdia4 = target: T1, GST-Pdia4 (Homo sapiens, UniProt P13667); test: Bovine pancreatic trypsin inhibitor (BPTI)-based assay of disulfide isomerase activity; type: biochemical; conditions: reduced BPTI as substrate, CP at different doses, FIG. 5B
T1 construct: made in house; host or cells: E. coli
T1 sequence (P13667 21-645): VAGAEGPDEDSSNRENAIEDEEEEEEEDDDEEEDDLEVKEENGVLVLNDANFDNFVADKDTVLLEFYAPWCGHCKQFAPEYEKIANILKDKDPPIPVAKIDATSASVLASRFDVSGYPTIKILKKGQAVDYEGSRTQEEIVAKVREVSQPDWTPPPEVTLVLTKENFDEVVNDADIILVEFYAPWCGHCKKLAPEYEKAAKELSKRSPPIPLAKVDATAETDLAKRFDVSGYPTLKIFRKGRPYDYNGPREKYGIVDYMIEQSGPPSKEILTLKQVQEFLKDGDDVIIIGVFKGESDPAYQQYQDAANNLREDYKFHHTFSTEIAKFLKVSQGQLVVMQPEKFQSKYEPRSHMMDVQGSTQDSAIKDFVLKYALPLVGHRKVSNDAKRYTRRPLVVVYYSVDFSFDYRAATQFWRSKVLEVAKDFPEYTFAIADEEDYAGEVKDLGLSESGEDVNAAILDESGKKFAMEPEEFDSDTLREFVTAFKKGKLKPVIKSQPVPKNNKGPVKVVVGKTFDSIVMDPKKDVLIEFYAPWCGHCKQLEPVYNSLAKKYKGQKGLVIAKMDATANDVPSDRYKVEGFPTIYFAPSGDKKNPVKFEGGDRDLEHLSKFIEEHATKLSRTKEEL
Protocol: Their postprandial blood glucose was determined using a glucometer. […] Their postprandial blood glucose was determined using a glucometer. Glutathione agarose bead-bound GST-Pdia4 (0.15 μg) were purified from E. coli bacteria.

lepr^db/db mice = test: Postprandial blood glucose in treated lepr db/db mice; type: in vivo, mouse; conditions: cytopiloyne 2.5 mg/kg daily, FIG. 5C
Protocol: Their postprandial blood glucose was determined using a glucometer. […] Their postprandial blood glucose was determined using a glucometer.
To deplete pancreatic β cells in mice. […] Postprandial blood glucose was measured. […] Postprandial blood glucose was measured.

pdia4^−/−lepr^db/db mice = test: Postprandial blood glucose in treated pdia4-/- lepr db/db mice; conditions: metformin 60 mg/kg BW, rosiglitazone 20 mg/kg BW or both, daily, FIG. 5A
Protocol: (A) lepr^db/db and pdia4^−/−lepr^db/db mice received a daily dose of PBS vehicle (Veh), metformin (MET, 60 mg/kg BW) and metformin (MET, 60 mg/kg BW)/rosiglitazone (ROS, 20 mg/kg BW). Their postprandial blood glucose was determined using a glucometer. […] (C) lepr^db/db mice received a daily dose of PBS vehicle (Veh), cytopiloyne (CP, 2.5 mg/kg), cytopiloyne (CP, 2.5 mg/kg)/metformin (MET, 60 mg/kg BW) and cytopiloyne (CP, 2.5 mg/kg)/metformin (MET, 60 mg/kg BW)/rosiglitazone (Ros, 20 mg/kg BW). Their postprandial blood glucose was determined using a glucometer.
To treat mice, PBS or a combination of cytopiloyne (2.5 mg/kg/day), metformin (60 mg/kg/day), and metformin (60 mg/kg/day) plus rosiglitazone (20 mg/kg/day) were fed for the indicated time. Postprandial blood glucose was measured. To treat pdia4^−/−lepr^db/db mice, PBS, metformin (60 mg/kg/day), and metformin (60 mg/kg/day) plus rosiglitazone (20 mg/kg/day) were fed for the indicated time. Postprandial blood glucose was measured.
After the overnight fasting, the mice had free access to food for 2 hr. fasting or postprandial blood glucose levels of the mice were measured using an Elite glucometer (Bayer).

Row | Structure (SMILES) | enzymatic (disulfide isomerase) activity of Pdia4 (GST-Pdia4) | enzymatic (disulfide isomerase) activity of Pdia4 (GST-Pdia4; listed as Cytopiloyne) | postprandial blood glucose (lepr^db/db mice) | hyperglycemia (postprandial blood glucose) (pdia4^−/−lepr^db/db mice)
1 | CC#CC#CC#CC#CCCC(CO)O[C@@H]1O[C@H](CO)[C@@H](O)[C@H](O)[C@H]1O (stereo partly shown) [cytopiloyne] | inhibited Pdia4 activity | suppress the enzymatic activity of Pdia4 | lower postprandial blood glucose | –
2 | CN(C)C(=N)N=C(N)N [metformin] | – | – | – | normalize hyperglycemia

Reference: patent US10987369B2, “Pdia4 protein as a target for diagnosis, monitoring and treatment of diabetes” (ACADEMIA SINICA, priority 2014, dated 2021)
